Laboratory results taken from US8618068B2, “Methods and low dose regimens for treating red blood cell disorders” (priority 2009, dated 2013).
“And” between values parts separate entries of the source, which are not always exact repeats. Equal entries are not always repeated.

How the values were obtained:
[1] = Immunotoxicology weight-of-evidence analysis, repeat dose rat study; assay type: in vivo, Sprague Dawley rat
Source text: The immunotoxicological potential of DMB has been evaluated by a weight-of-evidence analysis of the data generated in the repeat dose Sprague Dawley rat and Beagle dog studies. In both studies, there were no effects of treatment on WBC levels or lymph node histopathology, which are predictive of potential immunotoxicity.

Solubility in water = assay type: physicochemical
reticulocyte counts = experiment: Reticulocyte counts in transgenic mice; assay type: in vivo; conditions: 500 mg/kg/day
Source text: Transgenic mice containing the human β globin gene locus in a yeast artificial chromosome (βYAC) displaying the correct developmental regulation of ε-, γ-, and β-globin genes (with a silenced y-globin gene in the adult stage) were used to study the effects of DMB on γ-globin induction and erythroid cell production. In the μLCR-human A γ-globin transgenic mice, the y-globin mRNA expression relative to murine α-globin mRNA was increased by a mean of 1.8-fold above the baseline after treatment with DMB. In the βYAC transgenic mice at intraperitoneal (IP) doses of 500 mg/kg/day, DMB induced a 2-fold increase in human γ-globin mRNA synthesis relative to that of total non-α-globin. This level of induction was similar to that seen with 1,000 mg/kg/day of butyrate, and the changes were observed from 3 days after treatment initiation and persisted until 3 to 5 days after treatment termination.
Reticulocytosis was observed from day 3 up to day 12 (at the end of sampling).

[2] = Half-life of DMB (summary statement); conditions: in vivo
clinical = conditions: human, in vivo
Description: The first clinical study was a phase 1, double-blind, placebo-controlled, single dose study of the tolerability, safety and pharmacokinetics of DMB in 32 healthy volunteers. Healthy, fasting adult volunteers received single oral doses of DMB or placebo capsules at one of four dose levels (2 mg/kg, 5 mg/kg, 10 mg/kg and 20 mg/kg). Six subjects received study drug (24 subjects total) and 2 subjects received placebo at each dose level. The 8 placebo subjects received a capsule containing only the excipients from the capsules containing the active agent. Subjects at the 20 mg/kg also received a second dose of study drug after a defined meal, one week following the fasting dose.
DMB was rapidly absorbed after oral administration, with peak concentrations of DMB occurring at 0.5 to 3 hours after dosing, followed by a mono-exponential decay phase, consistent with linear pharmacokinetics (FIG. 7; FIG. 8). Inter-subject variability in the primary PK parameters appears to be low, especially at higher doses.

[3] = Dose range-finding embryo/fetal developmental toxicity in rabbits; assay type: in vivo, New Zealand White rabbits
Description: DMB was administered orally by gavage to 4 groups of 8 time-mated female New Zealand White rabbits once daily from gestation Days 7 through 20 at dosage levels of 50, 150, 300 and 600 mg/kg/day. […] All findings at necropsy occurred sporadically in single females, with similar frequencies in the control group and/or in a non dose-related manner and were considered incidental and unrelated to administration of DMB. Mean fetal weight in the 600 mg/kg/day group was 8.6% lower than the control group. Fetal weights in the 50, 150 and 300 mg/kg/day groups and fetal survival and external morphology at all dosage levels were unaffected by test article administration.

[4] = system: human peripheral lymphocytes; experiment: Chromosome aberrations in human peripheral lymphocytes; assay type: cell-based
Description: DMB was examined for the potential to induce chromosome aberrations in human peripheral lymphocytes in the presence and absence of an exogenous metabolic activation system (S9 mix). In the 3-hour cultures (without or with activation), the highest three concentrations (2450, 3500, and 5000 μg/mL) were analyzed for chromosome aberrations. In the 22-hour treatment, 288, 412 and 588 μg/ML were analyzed for chromosome aberrations. […] The aberrations in control cultures were within historical ranges. DMB was therefore considered negative for inducing structural or numerical chromosome aberrations in human peripheral lymphocytes with and without metabolic activation.

[5] = Pharmacokinetics of single doses in 5 baboons; conditions: monkey, in vivo
Description: Pharmacokinetics analyses have been conducted with DMB and 2,2-dimethylbutyric acid neutralized with L-arginine in baboons, dogs, and rats. The AUC per dose varied between animals.
Pharmacokinetic analyses of 2,2-dimethylbutyrate was conducted as either the sodium salt or the L-arginine salt, via the oral or intravenous route, as single doses to 5 baboons at doses of 33.3, 83.3, 100, 125 or 167 mg/kg free acid.
The data collected on DMB in plasma allowed an assessment of pharmacokinetic parameters; however, since collection time points were not performed in some baboons during the terminal elimination phase, these determinations are preliminary. The AUC per dose varied between animals. The area under the plasma concentration time-curve (AUC0-24 hr) following oral administration of DMB at 83.3 or 125 mg/kg free acid (100 and 150 mg/kg with salt) ranged from 1962-9363 μmol·h/L ([…]).

CCC(C)(C)C(=O)[O-].[Na+] [DMB, Sodium 2,2-dimethylbutyrate]
effects on WBC levels or lymph node histopathology [1]: no effects | solubility (Solubility in water): > 500 mg/mL | increase in reticulocyte counts (reticulocyte counts): approximately 6.7 fold | half-life [2]: 9 to 11 h | CL/F (clinical): 0.267 to 1.03 mL/min/kg | Vd (clinical): 0.204 to 0.426 L/kg | doses achieving biologically active plasma drug levels (clinical): ≥ 10 mg/kg | half-life (clinical): 5.5 to 11.6 h | AUC(0-inf) (clinical; 2 mg/kg): 38 ± 23 µg·h/mL | AUC (clinical; 5 mg/kg): 38.3 µg·h/mL | AUC(0-inf) (clinical; 5 mg/kg): 320 ± 40 µg·h/mL | AUC(0-inf) (clinical; 10 mg/kg): 538 ± 125 µg·h/mL | AUC (clinical; 20 mg/kg): 1190 µg·h/mL | AUC(0-inf) (clinical; 20 mg/kg): 1190 ± 243 µg·h/mL | effect of food on AUCINF (clinical; 20 mg/kg): no effects were observed | Cmax (clinical; 20 mg/kg, mean Cmax): 89 µg/mL | time of peak concentrations after dosing (clinical; po): 0.5 to 3 h | maternal body weight gains and food consumption ([3]; 300 mg/kg/day): Reduced mean maternal body weight gains and corresponding reduced mean food consumption | Mean fetal weight lower than the control group ([3]; 600 mg/kg/day): 8.6% | acceptability of dosage for a definitive embryo/fetal development study ([3]; 600 mg/kg/day, maternal and embryo/fetal toxicity): considered unacceptable | maternal or fetal test article-related effects ([3]; 50 and 150 mg/kg/day): no maternal or fetal test article-related effects | maternal macroscopic findings ([3]; any dosage level): No remarkable maternal macroscopic findings | fetal weights (50, 150, 300 mg/kg/day), fetal survival and external morphology (all dosage levels) ([3]; rabbit, in vivo): unaffected | numerical aberrations (polyploidy or endoreduplication) [4]: No test article-related increase | structural chromosome aberrations compared to vehicle-treated cultures ([4]; 3 h ± S9 up to 5000 μg/mL, 22 h up to 588 μg/mL): no test article-related increases | induction of structural or numerical chromosome aberrations ([4]; with and without metabolic activation): negative | clearance [5]: 0.833 to 7 mL/min/kg | half-life ([5]; half-life, range): 1.2 to 7.9 h | half-life ([5]; median half-life): 2.7 h | AUC(0-t) ([5]; po, 125 mg/kg): 1960 µM·h to 9360 µM·h and 226 ng·h/mL to 1080 ng·h/mL | bioavailability ([5]; po, Oral bioavailability over 24 hours): > 60%
